The values that follow come from PMC10812521, “Boesenbergia rotunda and Its Pinostrobin for Atopic Dermatitis: Dual 5-Lipoxygenase and Cyclooxygenase-2 Inhibitor and Its Mechanistic Study through Steady-State Kinetics and Molecular Modeling” (Antioxidants, 2024).

The term MIC denotes the lowest concentration that inhibits growth of the organism.

In data set [1] the test system is Staphylococcus aureus. Kind of data set: Broth dilution assay (MIC). The data set is classed as cell-based. Conditions: Staphylococcus aureus; pure compounds; inactive at >200 µg/mL; read-out: MIC. How it is done: The MIC values were determined using a broth dilution assay. Tetracycline used as an antibiotic was dissolved in 50% ethanol while EOs, extracts, and pinostrobin dissolved in DMSO (0.2% v/v) were suspended in an LB medium to obtain the final concentrations of EOs/extract, pinostrobin, and tetracycline in the range of 0.1562–200 µg/mL. Then, 20 µL of the bacterial culture with an OD600 value of ~0.5 was taken into each tube, which was continuously inoculated. Afterward, the treated culture was incubated at 37 °C for 24 h in a shaking condition (180 rpm). The absorbance was further measured at 600 nm. An LB medium and 0.2% DMSO were used as positive controls, while the cell culture without treatment in an LB medium was used as a negative control. The experiments were performed in triplicate.
In general terms: Broth dilution looks for growth in wells or tubes with falling amounts of substance.

Data set [2] relates to COX-2 and COX-1. Further details: method as in PMID 26626242. Conditions: cited from earlier work.
The nature of data set [3]: DPPH radical scavenging activity. Conditions: pure compounds. How it is done:
Each extract/EOs sample (20 µL) at various concentrations ([…]–5 mg/mL) was placed to a 96-well plate, followed by the addition of 120 µM DPPH solution in methanol (180 µL). The plate was subsequently incubated for 30 min in the dark at 37 °C. After that, the absorbance was measured by a microplate reader at 517 nm. Quercetin and solvent were used as a positive control and a control, respectively. The radical scavenging percentage inhibition against DPPH was calculated using Equation (4). (4) % Inhibition=Absorbance control−Absorbance sample/Absorbance control×100
(The DPPH test is a chemical assay of radical scavenging.)

Data set [4] is described as follows: Nitric oxide (NO) radical scavenging activity (Griess reaction). Conditions: pure compounds. The procedure:
The technique was adapted and modified from the study of Thadhani et al.. The Griess reaction was used to determine the NO radical scavenging activity. The NO radicals were generated from 10 mM sodium nitroprusside (SNP) in phosphate-buffered saline (PBS), pH 7.3. A range of sample concentrations (10 µL, 0.625–5 mg/mL) were reacted with 10 mM SNP in PBS at pH 7.3 (90 µL) at room temperature for 90 min in a 96-well plate under visible polychromatic light. Afterward, 1% sulfanilamide in 5% H3PO4 (50 µL) was added to the preincubated extract, followed by subsequent incubation in a dark condition with ambient temperature for 5 min. Following that, 50 µL of 0.1% w/v N-(1-naphtyl)-ethylenediamine (NED) in distilled water was added to each well before incubating at room temperature for 30 min in a dark condition. The diazotization of sulfanilamide with a nitrite ion occurred, followed by a coupling reaction with NED solution to generate a magenta-colored chromophore. The absorbance was measured using a microplate reader at 540 nm. Quercetin was used as a positive control. […] A solvent was used as a control. The percentage inhibition was calculated using Equation (5). (5) % Inhibition=Absorbance control−Absorbance sample/Absorbance control×100
On the technique in general: Nitrite, measured by Griess reagent, commonly stands in for NO production.

For data set [5], the target named is T1, Human recombinant 5-lipoxygenase (Homo sapiens, UniProt P09917).
T1 construct: purchased Cayman Chemical
T1 sequence (P09917 1-674): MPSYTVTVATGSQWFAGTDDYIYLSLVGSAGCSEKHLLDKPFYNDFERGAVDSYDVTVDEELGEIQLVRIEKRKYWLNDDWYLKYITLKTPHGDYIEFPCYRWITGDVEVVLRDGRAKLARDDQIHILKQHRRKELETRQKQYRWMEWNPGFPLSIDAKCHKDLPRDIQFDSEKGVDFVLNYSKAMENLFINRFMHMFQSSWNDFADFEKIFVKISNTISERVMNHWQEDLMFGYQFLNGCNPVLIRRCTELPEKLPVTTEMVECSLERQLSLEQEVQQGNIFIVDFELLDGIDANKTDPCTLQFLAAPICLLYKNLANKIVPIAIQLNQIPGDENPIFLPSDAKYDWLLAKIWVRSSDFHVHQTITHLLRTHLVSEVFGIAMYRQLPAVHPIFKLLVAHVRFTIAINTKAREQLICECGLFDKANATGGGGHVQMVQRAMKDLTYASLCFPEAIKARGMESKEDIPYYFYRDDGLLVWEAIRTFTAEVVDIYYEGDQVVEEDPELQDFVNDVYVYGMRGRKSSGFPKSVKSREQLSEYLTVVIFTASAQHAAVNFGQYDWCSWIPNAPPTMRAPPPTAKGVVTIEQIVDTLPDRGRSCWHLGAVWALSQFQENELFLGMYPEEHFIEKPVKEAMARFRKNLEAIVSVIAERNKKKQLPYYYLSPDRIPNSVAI
Kind of data set: Steady-state inhibition kinetic study of 5-lipoxygenase. The class given is biochemical. Conditions: Michaelis-Menten and Lineweaver-Burk plots. How it is done:
The same experimental conditions as described previously for determining enzyme inhibition were applied. The reaction was performed at 25 °C and measured kinetically for 30 min (BioTek Synergy H1 microplate reader, Winooski, VT, USA). […] Furthermore, the enzymes’ velocity was plotted versus the substrate concentration, which was fitted to the Henri–Michaelis–Menten equation. In addition, the data were transformed to fit a double reciprocal plot using the Lineweaver–Burk method. […] All measurements were performed in two rounds of triplicate wells.

Data set [6] deals with 5-LOX. Further details: method as in PMID 17376394. Conditions: cited from earlier work.
Data set [7] deals with T2, Human recombinant COX-2 (Homo sapiens, UniProt P35354).
T2 construct: purchased Sigma Aldrich C0858; host or cells: insect cells
T2 sequence (P35354 18-604): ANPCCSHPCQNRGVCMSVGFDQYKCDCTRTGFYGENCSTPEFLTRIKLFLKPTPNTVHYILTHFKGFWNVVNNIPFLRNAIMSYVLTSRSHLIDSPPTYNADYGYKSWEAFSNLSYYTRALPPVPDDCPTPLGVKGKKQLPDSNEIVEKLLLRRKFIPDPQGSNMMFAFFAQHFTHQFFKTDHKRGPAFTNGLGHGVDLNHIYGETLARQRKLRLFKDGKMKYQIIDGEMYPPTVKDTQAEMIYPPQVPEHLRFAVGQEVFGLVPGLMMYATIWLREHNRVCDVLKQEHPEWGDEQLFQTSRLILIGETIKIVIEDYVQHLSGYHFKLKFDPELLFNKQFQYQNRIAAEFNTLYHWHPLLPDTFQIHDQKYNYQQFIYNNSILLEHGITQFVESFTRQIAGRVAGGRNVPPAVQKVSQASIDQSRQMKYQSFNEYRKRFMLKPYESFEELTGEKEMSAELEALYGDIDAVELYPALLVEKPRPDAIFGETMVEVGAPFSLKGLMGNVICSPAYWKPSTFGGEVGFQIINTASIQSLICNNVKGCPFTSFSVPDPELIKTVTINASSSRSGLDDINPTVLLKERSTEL
Kind of data set: Cyclooxygenase-2 inhibitory assay. The data set is classed as biochemical. How it is done: This method was adapted and modified from Chew et al. (2018). Human recombinant COX-2 expressed in insect cells (Sigma Aldrich, C0858) was used in this experiment. Initially, a solution of 100 mM Tris HCl buffer, pH 8, was plated out in each well of a 96-well plate. Various concentrations of 40 µL samples (dissolved in polysorbate-20 and DMSO) were further added to the plate, followed by the addition of 40 µL of 40 U COX-2 enzyme (in ice-cool 100 mM Tris HCl buffer, pH 8). The mixture was incubated at 25 °C for 15 min under dark condition. Following the incubation, 10 µL of 20 mM N,N,N′,N′-tetramethyl-p-phenylenediamine (TMPD) and 4 µL of 10 µM of arachidonic acid were added to the mixture. Incubation of the mixture was further performed at a subdued light condition for 15 min. Prostaglandin G2 (PGG2) as an intermediate peroxide product was formed by the reaction and further oxidized the TMPD to a purple-colored TMPD complex. The absorbance was measured at 611 nm. The experiments were performed in duplicate wells. […] The percentage of inhibition was calculated by Equation (7), and the IC50 values were determined. (7) % Inhibition=Absorbance control−Absorbance sample/Absorbance control×100

In data set [8] the target is T3, Human recombinant 5-LOX (Homo sapiens, UniProt P09917).
T3 construct: purchased Cayman Chemical
T3 sequence (P09917 1-674): T1 sequence (P09917 1-674)
Kind of data set: 5-Lipoxygenase inhibitory assay. The data set is classed as biochemical. How it is done:
We performed this method according to a previous study with some modifications. Human recombinant 5-LOX (Cayman Chemical, E.C. 1.13.11.34, Ann Arbor, MI, USA) was used in this study. Various concentrations of 20 µL of the tested samples (dissolved in polysorbate-20 and DMSO) were plated in a 96-well UV transparent plate followed by the addition of 100 µL of 0.1 M potassium phosphate buffer, pH 6.3. The mixture was maintained at 25 °C before the addition of enzyme. We added 20 µL of 100 U 5-LOX enzyme (in 0.1 M potassium phosphate buffer, pH 6.3) to the sample solution followed by a 4 min incubation at 25 °C. Afterward, the reaction was initiated by adding 10 µL of 1 mM arachidonic acid as a substrate. The incubation was performed at 25 °C for 30 min, and the absorbance was measured at 234 nm using a microplate reader. The nonenzymatic control was used as a background. […] The experiments were performed in two rounds to generate five replicate wells in total. The percentage of inhibition was calculated by Equation (8), and the IC50 values were determined. (8) % Inhibition=Absorbance control−Absorbance sample/Absorbance control×100

For data set [9], the system named is soybean 15-lipoxygenase. Further details: method as in PMID 26048035. Conditions: tested range of concentrations; cited from earlier work.
Data set [10] deals with LPS-induced RAW264.7 murine macrophage cells. Further details: method as in PMID 26048035. Conditions: 25 µg/mL; cited from earlier work.
In data set [11] the test system is RAW264.7 murine macrophage cells. Further details: method as in PMID 26048035. Conditions: 25 µg/mL; cited from earlier work.
The subject of data set [12] is COX-2. Conditions: cited from earlier work.

“Also recorded” adds a separate entry of the source. Where a name gives a salt, the structure may show the parent alone. Read-outs that look alike come from different tables or passages of the source.

For `CN(C)[C@@H]1C(O)=C(C(N)=O)C(=O)[C@@]2(O)C(O)=C3C(=O)c4c(O)cccc4[C@@](C)(O)[C@H]3C[C@@H]12` [Tetracycline, tetracycline hydrochloride], the MIC in data set [1] is 3.12 µg/mL.
For the molecule `COc1cc(O)c2c(c1)OC(c1ccccc1)CC2=O` (racemic) [racemic pinostrobin, pinostrobin], in [2], the “COX activity compared with the positive control” value was “comparable to etodolac” and the “selectivity COX-2 versus COX-1” value was “more selective for COX-2 than COX-1”.
On to `O=c1c(O)c(-c2ccc(O)c(O)c2)oc2cc(O)cc(O)c12` [Quercetin, Quercetin hydrate], for which, in data set [3], the “DPPH Radical; IC50” value is 19.08 ± 1.34 µg/mL and the IC50 was 63.1 µM. Besides, in [4], the IC50 was 310 µM and the “NO Radical; IC50” value was found to be 93.58 ± 7.93 µg/mL.
On to `CC(Cc1ccc(O)c(O)c1)C(C)Cc1ccc(O)c(O)c1` (centres unmarked) [NDGA, nordihydroguaiaretic acid], for which the “type of inhibition against 5-LOX” value in data set [5] is recorded as “mixed-type inhibition; also recorded: mixed-type inhibitor”.
Regarding `CC(c1cc2ccccc2s1)N(O)C(N)=O` (centres unmarked) [zileuton], in data set [6], the IC50 was […].
Take `CCC(=O)OCC(=O)[C@@]1(OC(=O)CC)[C@@H](C)C[C@H]2[C@@H]3CCC4=CC(=O)C=C[C@]4(C)[C@@]3(F)[C@@H](O)C[C@@]21C` [BD, betamethasone dipropionate]: the IC50 in data set [7] (read-out: COX-2 IC50) is 240 µM; in data set [7] (read-out: COX-2 IC50 (µg/mL) (converted)), 240 µM; in [8] (5-LOX IC50 (µM)), 2.08 µM; in data set [8] (5-LOX IC50 (µg/mL)), 2.08 µM.
In the case of (–)-pinostrobin, the “activity towards soybean 15-lipoxygenase” value in data set [9] was “inactive”. In addition, the “inhibition of NO production” value in [10] is given as 90.84%. For the same molecule, in data set [11], the cytotoxic effect entry is reported as “without a cytotoxic effect”.
As for `COc1ccc2c(c1)c(CC(=O)O)c(C)n2C(=O)c1ccc(Cl)cc1` [indomethacin], in data set [12], the “COX-2 IC50” value is given as 0.26 ± 0.03 µg/mL.
